In US20070142341A1, “Use of steroid derivatives for the treatment of angiotensin ll related disease e.g. cardiovascular and proliferative disorders” (priority 2003, published 2007):
Values belong to the compound of their own block, whether it stands above or below them.

Experiments:
[1] = tested on: rat aortic smooth muscle cells (RASMC); test: 3H-methylthymidine incorporation into rat aortic smooth muscle cells stimulated with Ang II; format: cell-based; settings: for Tritiated thymidine uptake / Effect on tritium incorporation induced by Ang II: 48 hours; for Tritiated thymidine uptake: serum-free medium, control 57.6, Ang II alone 87.1; for Effect on tritium incorporation induced by Ang II: Ang II 10^−7 M
From the text: (§1) Aortic smooth muscle cells (ASMCs) were isolated from rat thoracic and abdominal artery (RASMC) and bovine aorta (BASMC) by the media explant method and cultured over several passages.
(§2) Segments of both abdominal and thoracic aortas were obtained from rats by careful dissection from killed rats. Segments of aorta were obtained from calves under anaesthesia. The segments of aorta were placed in a depression slide containing tissue culture medium, after which the adventitia and the outer portion of each segment was carefully removed under a dissecting microscope. The remaining inner portion of the tissue and the intima were removed to a separate dissecting dish and washed several times with fresh culture medium. At this point each segment was cut into approximately 1 mm squares and placed on 25 cm^2 tissue culture flask. The flasks were loosely capped and placed in a humidified CO2 incubator After two hours, 4 ml of RPMI-1640 culture medium supplemented with 100 units/ml of penicillin, […] streptomycin, […] L-glutamine and 20% […] was carefully added to the flasks without dislodging the tissue. Samples were fed with fresh medium after one week. The cells from the explants were relatively confluent within a period of approximately 2 weeks. They were then rinsed with PBS, and subsequently trypsinized with a solution of 0.125% trypsin and 0.02% EDTA in PBS for 1-2 min al 37° C. The resulting suspension of cells was pipetted into 75 cm^2 tissue culture flasks containing 10 ml culture medium and incubated as above.
(§3) Experiments were performed with cells from passages 3 to 5.
^3H-methylthymidine incorporation into rat aortic smooth muscle cells (RASMC). Quiescent RASMC (0.3×10^5/ml/well) were incubated with serum-free medium (SFM) containing Ang II (10^−7 M) with or without different concentrations of trilostane for 48 hours. The results are shown in Table 1. ^3H-methylthymidine incorporation into RASMC was increased in the Ang II treated group.
Using the same tritiated thymidine uptake methodology as for Example 1, the actions of Losartan on angiotensin II-stimulated cell proliferation were tested in the presence and absence of trilostane.

[2] = tested on: LV dysfunction and remodeling; settings: dogs with chronic heart failure, 3 months of treatment, cited from earlier work
myocardial injury = settings: rat model, angiotensin-induced injury, treatment with eplerenone; cited from earlier work
[3] = tested on: severe congestive heart failure (CHF); settings: patients with severe congestive heart failure, given in addition to ACE inhibitors; cited from earlier work
[4] = tested on: circulating adrenal steroids; test: Circulating plasma adrenal steroids in whole, healthy rats (radioimmunoassay, FIG. 1); format: in vivo, rat
Procedure: Trilostane has been used in treatments that are aimed at suppressing adrenal steroid secretion. Examples of adrenal steroids include cortisol, aldosterone and corticosterone. In practice, in patients with normally functioning adrenals, circulating adrenal steroids are reduced only at high trilostane dosage levels upwards of 8 to 10 mg/kg/day equivalent, and this is the regime most frequently used (Beardwell et al. 1985, Clin Endocrinol (Oxf), 23, 413-21, Engelhardt and Weber 1994, J Steroid Biochem Mol Biol, 40, 261-7). […] This can be shown by testing the levels of circulating adrenal steroids pre- and post-treatment and assessing whether or not the concentrations of adrenal steroids have been reduced. The levels of circulating adrenal steroids in the plasma can be tested by collecting circulating blood from a vein. Plasma is obtained by centrifugation and plasma steroid (for example, cortisol and aldesterone for humans, corticosterone and aldosterone in rats) is assayed using a conventional radioimmunoassay. Suitable corticosterone radioammunoassay kits are available from Amersham Biosciences UK Limited. Suitable aldosterone radioimmunoassay kits are available from Diagnostic Products Corporation.

[5] = tested on: circulating adrenal steroids; test: Circulating corticosterone and aldosterone in male Wistar rats after 5 days of trilostane (FIG. 3a, b); format: in vivo, rat; settings: trilostane 4 mg/kg per day for 5 days, versus vehicle control
Procedure: Male Wistar rats (˜500 g) were treated with 0.1 ml ethanol in cotton seed oil with trilostane 4 mg/kg per day for 5 days. Control animals received the vehicle alone. Animals were then treated with 0.1 ml (500 u) heparin IP, before killing by stunning and cervical dislocation. Blood was collected from neck vessels, centrifuged to obtain plasma which was stored at −20° C. until required for steroid analysis. Corticosterone and aldosterone concentrations were assayed using commercially available kits (Diagnostic Systems Laboratories Inc., Webster, Tex., USA). Circulating concentrations of corticosterone (FIG. 3 (a)) and aldosterone (FIG. 3(b)) are shown for control animals and animals receiving trilostane treatment.

[6] = tested on: circulating adrenal steroids; settings: patients with normally functioning adrenals; cited from earlier work
AT1 receptor mRNA = AT1 receptor mRNA expression by RT-PCR and real-time quantitative RT-PCR in RASMC (FIG. 4); format: cell-based, rat; settings: 48 hours, trilostane added to angiotensin II, FIG. 4, P<0.01
Procedure: […] Real-time RT-PCR was performed using Brilliant SYBR Green QRT-PCR Master Mix Kit, 1-step based on real-time detection of accumulated fluorescence (M×300P, Stratagene, Amsterdam). Results are means, SEM too small to show. **=P<0.01.

[7] = tested on: rat aortic smooth muscle cells (RASMC); test: Cell count for rat aortic smooth muscle cells stimulated with Ang II; format: cell-based; settings: 48 hours; for Cell Count: 20% FBS RPMI-1640, control 12.00 × 10^4, Ang II alone 21.30 × 10^4; for Effect on Ang II stimulated increase in cell number: Ang II 10^−7 M
From the text: as §1, §2, §3
Cell count for rat aortic smooth muscle cells (RASMC). RASMC (0.5×10^5/ml/well) were incubated with 20% FBS RPMI-1640 medium containing Ang II (10^−7 M) with or without different concentrations of trilostane for 48 hours.

[8] = tested on: vascular smooth muscle cells; test: Fura-2 [Ca2+]i signal response to angiotensin II in smooth muscle cells cultured from trilostane treated rats; format: cell-based, rat; design: key: + = calcium response; − = no response; settings: cells (TTSMC) from rats given trilostane 4 mg/kg per day for 5 days
Procedure: Male Wistar rats (˜500 g) were treated with 0.1 ml ethanol in cotton seed oil with trilostane 4 mg/kg per day for 5 days. Control animals received the vehicle alone. Animals were then treated with 0.1 ml (500 u) heparin IP, before killing by stunning and cervical dislocation. Blood was collected from neck vessels, centrifuged to obtain plasma which was stored at −20° C. until required for steroid analysis. Corticosterone and aldosterone concentrations were assayed using commercially available kits (Diagnostic Systems Laboratories Inc., Webster, Tex., USA). Circulating concentrations of corticosterone (FIG. 3 (a)) and aldosterone (FIG. 3(b)) are shown for control animals and animals receiving trilostane treatment. […] Primary cultures were established of RASMC obtained from trilostane treated and control animals, using the established methods. For [Ca^2+]i measurement, the cells were loaded with 1 μM fura-2 for 30 min in medium-modified Krebs-Ringer bicarbonate solution (3.6 mM K^+, 1.2 mM Ca^2+, 0.5 mM Mg^2+, 5 mM Hepes and 20 mM HCO^−) at 37° C. For simultaneous measurements of measuring the fluorescence of fura-2, the cells plated on coverslips were mounted on the stage of an inverted microscope (Zeiss) in a modified Krebs-Ringer bicarbonate solution. The excitation wavelengths were 340 and 380 nm, and emission was detected at 510 nm. [Ca^2+]i was calculated from the ratio of fluorescence intensities at excitation wavelengths of 340 and 380 nm. Fields of cells, ˜10 cells per field, were tested from control and trilostane treated animals. The results are shown in Table 3 and FIGS. (c) and (d) wherein the arrow indicates the time of application of angiotensin II. Characteristic calcium signals obtained by stimulation of vascular smooth muscle cells from control animals (FIG. 3(c)) and trilostane treated animals (FIG. 3(d)) by 10 nmol/L angiotensin II.

[9] = Ang II 10^−7 M + trilostane 10^−5 M
[10] = Ang II 10^−7 M + trilostane 10^−6 M
[11] = Ang II 10^−7 M + trilostane 10^−7 M
[12] = Ang II 10^−7 M + trilostane 10^−8 M
[13] = Ang II 10^−7 M + trilostane 10^−9 M
[14] = trilostane at 10^−6 and 10^−5 M
[15] = trilostane at 10^−9, 10^−8 and 10^−7 M

Compound: CCCCc1nc(Cl)c(CO)n1Cc1ccc(-c2ccccc2-c2nn[nH]n2)cc1 [Losartan]
Action on angiotensin II-stimulated cell proliferation (tritiated thymidine uptake) ([1]; Losartan with angiotensin II, absence of trilostane, FIG. 2): significantly eliminated the stimulatory action of angiotensin II
Cell proliferation (tritiated thymidine uptake) compared with controls ([1]; losartan alone group, FIG. 2): not different from controls

Compound: COC(=O)[C@@H]1CC2=CC(=O)CC[C@]2(C)[C@@]23O[C@@H]2C[C@@]2(C)[C@@H](CC[C@@]24CCC(=O)O4)[C@H]13 [eplerenone]
Reduction in cardiomyocyte cross-sectional area ([2]; compared with control): 28%
Reduction of volume fraction of reactive interstitial fibrosis ([2]; compared with control): 37%
Reduction of volume fraction of replacement fibrosis ([2]; compared with control): 34%
LV end-diastolic wall stress ([2]; increased significantly in control dogs): decreased significantly
End-diastolic volume, end-systolic volume, and EF ([2]; volumes increased significantly in control dogs): remained unchanged
COX-2 expression in the media of coronary arteries (myocardial injury): markedly attenuated
Myocardial injury (myocardial injury): markedly attenuated
Osteopontin expression in the media of coronary arteries (myocardial injury): markedly attenuated

Compound: CC(=O)S[C@@H]1CC2=CC(=O)CC[C@]2(C)[C@H]2CC[C@@]3(C)[C@@H](CC[C@@]34CCC(=O)O4)[C@H]12 [spironolactone]
Mortality [3]: significantly reduced mortality

mRNA transcription of the gene coding for the angiotensin II type 1 receptor (AT1) (AT1 receptor mRNA): reduced even further
Compound: C[C@]12CC[C@H]3[C@@H](CC[C@@]45O[C@@H]4C(O)=C(C#N)C[C@]35C)[C@@H]1CC[C@@H]2O [trilostane, (4α,5α-17β)-4,5-epoxy-3,17-dihydroxyandrost-2-ene-2carbonitrile]
Circulating corticosterone levels ([4]; rats, trilostane 4 mg/kg/day or 8 mg/kg/day): Neither dose (4 mg/kg/day or 8 mg/kg/day) affects circulating corticosterone levels
Concentrations of aldosterone in circulating plasma ([4]; rats, trilostane 4 mg/kg/day, FIG. 1b): does not reduce concentrations of aldosterone in circulating plasma
Concentrations of aldosterone in circulating plasma ([4]; whole, healthy rats, trilostane 8 mg/kg/day, FIG. 1a): reduces concentrations of aldosterone in circulating plasma
Circulating concentrations of corticosterone ([5]; FIG. 3(a)): no significant differences
Circulating concentrations of aldosterone ([5]; FIG. 3(b)): no significant differences
Dosage level at which circulating adrenal steroids are reduced [6]: 8 to 10 mg/kg/day
Cell Count [7, 9]: 14.25 × 10^4
Cell Count [7, 10]: 14.00 × 10^4
Cell Count [7, 11]: 20.00 × 10^4
Cell Count [7, 12]: 21.95 × 10^4
Cell Count [7, 13]: 21.00 × 10^4
Effect on Ang II stimulated increase in cell number [7, 14]: inhibited
Effect on Ang II stimulated increase in cell number [7, 15]: not at 10^−9, 10^−8 and 10^−7 M
Tritiated thymidine uptake [1, 9]: 42.7 dpm
Tritiated thymidine uptake [1, 10]: 74.9 dpm
Tritiated thymidine uptake [1, 11]: 89.1 dpm
Tritiated thymidine uptake [1, 12]: 101.88 dpm
Tritiated thymidine uptake [1, 13]: 96.7 dpm
Cell proliferation (tritiated thymidine uptake) ([1]; trilostane additionally present with Losartan, FIG. 2, P<0.05 / P<0.01): decreased cell proliferation still further to less than control values
Effect on tritium incorporation induced by Ang II [1, 14]: inhibited
Effect on tritium incorporation induced by Ang II [1, 15]: not at 10^−9, 10^−8 and 10^−7 M
Calcium signal response to angiotensin II ([8]; Ang II 10^−6 M): +
Calcium signal response to angiotensin II ([8]; Ang II 10^−7 M): −
Calcium signal response to angiotensin II ([8]; Ang II 10^−8 M, control cells (NSMC) +): −
Calcium signal response to angiotensin II ([8]; Ang II 10^−9 M, control cells (NSMC) −): −
Calcium signal response to angiotensin II ([8]; Ang II 10^−10 M, control cells (NSMC) −): −
Calcium signal response to angiotensin II ([8]; Ang II 10^−11 M, control cells (NSMC) −): −
